In patent US20260167673A1, “NOVEL POLYPEPTIDE, POLYPEPTIDE DERIVATIVE AND USE THEREOF” (NANJING ANJI BIOTECHNOLOGY CO., LTD., priority 2023, published 2026):
Like-named read-outs stand apart in the source and are kept apart here. Marks after values point to notes of the source that are not given here. Where no end group is shown, it is not given here.

Columns and labels:
Type in all cases: cell-based
[1] = tested on: human cervical cancer Hela cells; test: Transwell metastasis inhibition, Hela; conditions: 50 μmol/L, 48 h
Description: (§1) Melanoma, cervical cancer, ovarian cancer, liver cancer, and lung cancer cells were seeded into transwell chambers, with 100 μL per well. Different doses of the HMMW micropeptide and the novel polypeptide HMMW15-51 were added to each chamber as a treatment group, while no drug was added to a blank group. Then, 0.6 mL of a complete culture medium containing 10% FBS was added to the lower chambers of the transwell to stimulate cell metastasis, and the cells were cultured at 5% CO2 and 37° C. for 48 h. The culture solution was discarded from the wells. The cells were fixed with methanol at room temperature for 30 min, stained with 0.1% crystal violet at room temperature for 10 min, and rinsed with clean water. The upper layer nonmetastatic cells were wiped off with a cotton swab. The cells were observed under a microscope, and four fields of view were selected to take photos and count the cells. A metastasis inhibition (MI) was calculated according to a formula: […]
(§2) where Ntest represents the number of cell metastases in the treatment group, and Ncontrol represents the number of cell metastases in the blank control group.
(§3) Data was presented as mean±SD, and GraphPad Prism 5.0 statistical software was used.

[2] = tested on: human multiple myeloma cells LP-1; test: CCK8 proliferation inhibition, LP-1; conditions: LP-1, 50 μM, 48 h
Description: (§4) Incubation was continued for 4 h in a cell incubator, an absorbance was measured at 450 nm, and a proliferation inhibition was calculated. Data was presented as mean±SD, and GraphPad Prism 5.0 statistical software was used. A t-test was used for comparison between two groups, while One-way Anova (Dunnett) was used for comparison among a plurality of groups.

[3] = tested on: human pancreatic cancer cells ASPC-1; test: CCK8 proliferation inhibition, ASPC-1; conditions: ASPC-1, 50 μM, 48 h
Description: as §4

[4] = tested on: human chronic myeloid leukemia cells K562; test: CCK8 proliferation inhibition, K562; conditions: K562, 50 μM, 48 h
Description: as §4

[5] = tested on: human prostate cancer cells PC-3; test: CCK8 proliferation inhibition, PC-3; conditions: PC-3, 50 μM, 48 h
Description: as §4

[6] = tested on: human acute myeloid leukemia cells KG-1; test: CCK8 proliferation inhibition, KG-1; conditions: KG-1, 50 μM, 48 h
Description: as §4

[7] = tested on: human papillary thyroid carcinoma cells NPPA87-1; test: CCK8 proliferation inhibition, NPPA87-1; conditions: NPPA87-1, 50 μM, 48 h
Description: as §4

[8] = tested on: human brain astrocytoma cells U87MG; test: CCK8 proliferation inhibition, U87MG; conditions: 50 μM, 48 h
Description: as §4

[9] = tested on: human tongue squamous cell carcinoma CAL27 cells; conditions: CAL27, 80 μM, 48 h
Description: After incubation was continued for 48 h, add 100 μL of CCK8 solution to each well of the 96-well plate.

[10] = tested on: human prostate cancer cells 22RV1; test: CCK8 proliferation inhibition, 22RV1; conditions: 22RV1, 50 μM, 48 h
Description: as §4

[11] = tested on: human ovarian cancer Skvo3 cells; test: Transwell metastasis inhibition, Skvo3; conditions: 48 h
Description: as §1, §2, §3

## MERAGVPGFSPRRSSVEAKMQSTSCSVRKSSTVTAWPAVVLLLSWGQRRGG [HMMW]
[1]; Hela metastasis
  Inhibition (%): 88.80*** %
[1]; Hela
  Number of cell metastases: 115 ± 20.32
[2]
  Inhibition (%): 47.561 ± 4.259 %
  OD: 0.462 ± 0.038
[3]
  Inhibition (%): 51.448 ± 4.377 %
  OD: 0.497 ± 0.045
[4]
  Inhibition (%): 51.933 ± 2.838 %
  OD: 0.618 ± 0.036
[5]
  Inhibition (%): 50.341 ± 3.864 %
  OD: 0.509 ± 0.040
[6]
  Inhibition (%): 37.600 ± 5.989 %
  OD: 0.725 ± 0.070
[7]
  Inhibition (%): 48.192 ± 2.999 %
  OD: 0.478 ± 0.028
[8]
  Inhibition (%): 62.176 ± 2.001 %
  OD: 0.365 ± 0.019
[9]; Table 1, deletion mutants
  OD: 0.260 ± 0.098
[9]; Table 2, truncated fragments
  OD: 0.351 ± 0.078
[10]
  Inhibition (%): 50.463 ± 1.693 %
  OD: 0.552 ± 0.019
[11]; Skvo3, 50 μmol/L
  Number of cell metastases: 118 ± 26.16
[11]; Skvo3 metastasis, 50 μmol/L
  Inhibition (%): 89.60*** %
